Assay results taken from PubChem BioAssay (NCI).
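Protocol summary: plate cells (96-well), add compound at 5 concentrations, incubate 48 h, interpolate endpoints linearly. The concentration for full growth arrest is given as TGI.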

Legend:
Experiment in all cases: NCI tumour cell line growth inhibition, 48 h
[1] = system: OVCAR-4 ovarian
[2] = system: MCF7 breast
[3] = system: UO-31 renal
[4] = system: HOP-62 NSCLC
[5] = system: HCT-116 colon
[6] = system: MOLT-4 leukemia
[7] = system: CAKI-1 renal
[8] = system: SK-OV-3 ovarian
[9] = system: UACC-62 melanoma
[10] = system: OVCAR-3 ovarian
[11] = system: NCI-H460 lung

| SMILES | TGI [1] [µM] | TGI [2] [µM] | TGI [3] [µM] | TGI [4] [µM] | TGI [5] [µM] | TGI [6] [µM] | TGI [7] [µM] | TGI [8] [µM] | TGI [9] [µM] | TGI [10] [µM] | TGI [11] [µM] |
| --- | --- | --- | --- | --- | --- | --- | --- | --- | --- | --- | --- |
| CC(C)CC1c2[nH]c3ccccc3c2C[C@H]2C(=O)NC(CCC(=O)OC(C)(C)C)C(=O)N12 (stereo partly drawn) | > 100 | > 100 | > 100 | 56.2 | > 100 | 72.8 | > 100 | > 100 | > 100 | 41.7 | – |
| CC1OC(O[C@H]2CC[C@]3(C)[C@H]4CC=C5[C@@H]6[C@@H](C)[C@H](C)CC[C@]6(C(=O)O)CC[C@@]5(C(=O)O)[C@]4(C)CC[C@H]3C2(C)C)C(O)C(O)C1O (stereo partly drawn) | > 75 | > 75 | > 75 | > 75 | > 75 | > 75 | > 75 | > 75 | > 75 | > 75 | > 75 |
| [N-]=[N+]=Nc1ccc2c(c1)Sc1ccccc1N2CCCCCl | > 100 | > 100 | > 100 | > 100 | > 100 | > 100 | > 100 | > 100 | > 100 | > 100 | > 100 |
| COc1cc(-c2coc3c(OC)c(OC4OC(CO)C(O)C(O)C4O)c(OC)cc3c2=O)cc(OC)c1C (stereo not drawn) | 63.2 | 25.8 | 21 | 44.1 | > 100 | > 36 | 31 | 23.4 | 17.2 | > 100 | > 70.1 |
| NC1CC(=O)c2cc(Br)sc21 (stereo not drawn) | – | > 100 | > 100 | > 100 | > 100 | > 100 | > 100 | > 100 | > 100 | > 100 | > 100 |
| CC1[C@@H](OCc2ccccc2)COC(=O)N1Cc1ccccc1 (stereo partly drawn) | > 100 | > 100 | > 100 | > 100 | > 100 | > 100 | – | > 100 | > 100 | > 100 | – |
| CN(C)CCO/N=C1/C=C2CC[C@H]3[C@@H]4CC[C@H](O)[C@@]4(C)CC[C@@H]3[C@@]2(C)CC1 | – | 86 | 28.2 | > 87.4 | 31.5 | > 36.3 | > 66.8 | 44.4 | 26 | 61 | 21.9 |
| CCOC(=O)c1ccc(C(=O)/C(C#N)=C2\CCCN2)[nH]1 | > 100 | > 100 | > 100 | > 100 | > 100 | > 100 | > 100 | > 100 | > 100 | > 100 | > 100 |
| Cc1c2c(n(CCc3ccccc3)c1C)NN=C(C#N)S2(=O)=O | > 100 | > 100 | > 100 | > 100 | > 100 | > 100 | – | > 100 | > 100 | > 100 | > 100 |
| C=CCOCn1ccc(=O)[nH]c1=O | – | > 100 | > 100 | > 100 | > 100 | > 100 | > 100 | > 100 | > 100 | – | > 100 |
| COC1OC(CO)C(O)C(OC(=O)c2cc(O)c(O)c(O)c2)C1OC(=O)c1cc(O)c(O)c(O)c1 (stereo not drawn) | 90.4 | > 100 | > 100 | > 100 | > 100 | > 100 | > 100 | > 100 | – | > 100 | > 100 |
| CC1=C(OC2OC(CO)C(O)C(O)C2O)C(=O)C[C@H]2C1=CC[C@@H]1[C@@]2(C)C(=O)C[C@]2(C)[C@@H]([C@@](C)(O)C(=O)CCC(C)(C)O)[C@H](O)C[C@@]12C (stereo partly drawn) | > 100 | > 100 | > 100 | > 100 | > 100 | > 100 | > 100 | > 100 | > 100 | > 100 | > 100 |
| CC1C[C@]2(C)C(=S)Nc3ccccc3[C@@H]2Nc2ccccc21 (stereo partly drawn) | 38.6 | 27.3 | 32.8 | 31.8 | 26.7 | 56.1 | 79 | – | 34.4 | 32.1 | 29.6 |
| CCOC(=O)n1cncc1CC(NC(=O)Cc1c(C(=O)C=C(C)C)[nH]c2ccccc12)C(=O)OC (stereo not drawn) | 37.9 | 84.1 | 32.3 | – | > 100 | 47.3 | 34.8 | 35.3 | 36.3 | 38.9 | 58 |
| CC1(C)C(=O)N=C(N)N1C(=O)OCc1ccccc1 | > 100 | > 100 | > 100 | > 100 | > 100 | > 100 | > 100 | > 100 | > 100 | > 100 | > 100 |
| COC(=O)C1(O)c2ccccc2N=C2C(=O)c3ccccc3N21 (stereo not drawn) | > 100 | > 100 | > 100 | > 100 | > 100 | > 100 | > 100 | – | – | > 100 | > 100 |
| CC1N(C)C(=O)OC12CCN(CCCC(=O)c1ccc(F)cc1)CC2 (stereo not drawn) | – | > 100 | > 100 | > 100 | > 100 | > 100 | > 100 | > 100 | > 100 | > 100 | > 100 |
| CCOC(=O)c1c(NC(=O)Nc2ccccc2)c(C(N)=O)c2n1CCCCC2 | > 100 | > 100 | > 100 | > 100 | > 100 | > 100 | > 100 | > 100 | > 100 | – | > 100 |
| O=C1CCCc2cc3c(cc21)CCC3C(=O)O (stereo not drawn) | > 100 | > 100 | > 100 | > 100 | > 100 | > 100 | > 100 | > 100 | > 100 | – | > 100 |
| O=c1c2cccnc2nc2ccc3c[nH][nH]c3c12 | > 10 | > 10 | – | > 10 | > 10 | > 10 | > 10 | > 10 | > 10 | > 10 | > 10 |
